Where two headings read alike, the source gives them in different places.
Experiments:
Factor Xa (human) = Factor Xa (human) (Homo sapiens (Human), UniProt P00742); assay: Enzyme assay, inhibition constant for factor Xa (chromogenic substrate, Dixon method); format: biochemical; conditions: read-out: Ki FXa
Procedure: (§1) Reactions were started by addition of 50 μl of enzyme solution.
(§2) The Ki values are the mean of at least two measurements. Enzymes and substrates used are set out in Table 1 below: […]

plasmin [1] = biological target: T1, plasmin (Homo sapiens (Human), UniProt P00747); assay: Enzyme assay, inhibition constant for human plasmin (chromogenic substrate, Dixon method); format: biochemical; conditions: 25° C., Tris HCl buffer pH 8.0, substrate Tos-Gly-Pro-Lys-pNA, mean of at least two measurements; read-out: Ki h Plasmin
Procedure: as §1, §2
Target sequence in this assay (P00747 581-810): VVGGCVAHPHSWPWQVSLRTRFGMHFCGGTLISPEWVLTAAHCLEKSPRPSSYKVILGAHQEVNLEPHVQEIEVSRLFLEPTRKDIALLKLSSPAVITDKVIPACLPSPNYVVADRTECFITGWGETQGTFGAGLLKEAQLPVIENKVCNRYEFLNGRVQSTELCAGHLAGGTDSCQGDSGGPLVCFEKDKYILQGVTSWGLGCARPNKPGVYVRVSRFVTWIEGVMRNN
Target sequence in this assay (P00747 97-580 partner): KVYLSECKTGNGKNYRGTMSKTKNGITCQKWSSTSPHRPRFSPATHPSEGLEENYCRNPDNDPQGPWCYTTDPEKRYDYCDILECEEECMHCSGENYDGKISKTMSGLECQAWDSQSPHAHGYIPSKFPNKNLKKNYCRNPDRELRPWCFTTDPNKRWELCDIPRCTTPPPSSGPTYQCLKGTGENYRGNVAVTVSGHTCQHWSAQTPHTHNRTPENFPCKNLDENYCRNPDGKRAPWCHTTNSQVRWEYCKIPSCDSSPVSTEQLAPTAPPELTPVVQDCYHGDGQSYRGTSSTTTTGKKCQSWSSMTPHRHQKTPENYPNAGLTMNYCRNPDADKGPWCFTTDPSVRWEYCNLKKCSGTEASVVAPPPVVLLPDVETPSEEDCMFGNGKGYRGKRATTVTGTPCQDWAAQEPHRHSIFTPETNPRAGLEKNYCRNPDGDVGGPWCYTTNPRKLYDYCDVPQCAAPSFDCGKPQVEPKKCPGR

thrombin = thrombin (Bos taurus (Bovine), UniProt P00735); assay: Enzyme assay, inhibition constant for thrombin (chromogenic substrate, Dixon method); format: biochemical, Rind; conditions: substrate CH3SO2-D-Cha-Gly-Arg-pNA, mean of at least two measurements
Procedure: as §1, §2

plasma kallikrein = plasma kallikrein (Homo sapiens (Human), UniProt P03952); assay: Enzyme assay, inhibition constant for human plasma kallikrein (chromogenic substrate, Dixon method); format: biochemical; conditions: 25° C., Tris HCl buffer pH 8.0, substrate H-D-Pro-Phe-Arg-pNA, mean of at least two measurements; read-out: Ki PK
plasma kallikrein, sequence (P03952 391-638): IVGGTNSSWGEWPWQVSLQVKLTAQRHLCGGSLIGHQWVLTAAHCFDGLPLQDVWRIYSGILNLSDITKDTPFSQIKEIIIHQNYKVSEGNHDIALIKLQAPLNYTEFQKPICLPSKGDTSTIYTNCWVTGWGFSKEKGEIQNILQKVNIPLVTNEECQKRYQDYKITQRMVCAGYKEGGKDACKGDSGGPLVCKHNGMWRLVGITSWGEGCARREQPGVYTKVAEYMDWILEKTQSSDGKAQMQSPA
plasma kallikrein, sequence (P03952 20-390 partner): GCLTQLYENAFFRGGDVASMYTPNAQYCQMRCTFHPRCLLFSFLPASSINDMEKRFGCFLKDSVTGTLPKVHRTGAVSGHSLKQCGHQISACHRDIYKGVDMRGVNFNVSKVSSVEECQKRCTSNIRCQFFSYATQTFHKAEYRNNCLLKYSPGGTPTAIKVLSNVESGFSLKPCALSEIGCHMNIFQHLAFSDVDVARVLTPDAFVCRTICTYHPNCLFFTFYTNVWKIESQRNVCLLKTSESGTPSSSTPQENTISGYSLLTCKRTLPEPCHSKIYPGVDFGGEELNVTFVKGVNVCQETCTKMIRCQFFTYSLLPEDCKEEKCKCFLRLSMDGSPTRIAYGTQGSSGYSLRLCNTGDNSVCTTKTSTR
Procedure: as §1, §2

plasmin [2] = biological target: T1, plasmin; conditions: background, literature; read-out: Ki / inhibition constant for plasmin; cited from earlier work
Target sequence in this assay (P00747 581-810, species assumed): as the sequence (P00747 581-810) above
Target sequence in this assay (P00747 97-580 partner, species assumed): as the sequence (P00747 97-580 partner) above

[3] = cited from earlier work
trypsin = conditions: background; cited from earlier work
[4] = substrate CH3OCO-D-Cha-Gly-Arg-pNA, mean of at least two measurements

Factor Xa (human), sequence (P00742 235-488): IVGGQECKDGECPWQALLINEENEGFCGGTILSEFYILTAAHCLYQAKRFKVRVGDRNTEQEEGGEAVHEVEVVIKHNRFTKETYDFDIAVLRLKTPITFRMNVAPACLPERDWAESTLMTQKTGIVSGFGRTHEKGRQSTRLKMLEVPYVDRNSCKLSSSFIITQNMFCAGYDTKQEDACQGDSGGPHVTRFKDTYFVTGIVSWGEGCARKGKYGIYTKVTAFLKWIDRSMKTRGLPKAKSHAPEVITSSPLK
Factor Xa (human), sequence (P00742 41-179 partner): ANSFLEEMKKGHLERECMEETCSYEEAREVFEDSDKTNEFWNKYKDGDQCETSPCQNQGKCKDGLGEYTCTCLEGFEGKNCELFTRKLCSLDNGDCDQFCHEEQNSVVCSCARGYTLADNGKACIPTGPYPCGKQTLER

Compound | Ki (Factor Xa (human); [4]) | Ki (plasmin [1]) | Ki (thrombin) | Ki (plasma kallikrein) | Ki (Factor Xa (human)) | Ki (plasmin [2]) | risk of anaphylactic shock ([3]; first administration) | risk of anaphylactic shock ([3]; repeated administration within 200 days) | Ki (trypsin)
N=C(N)c1ccc(CNC(=O)[C@@H]2Cc3cn(nn3)Cc3cccc(c3)Cn3cc(nn3)C[C@@H](NS(=O)(=O)Cc3ccccc3)C(=O)N2)cc1 [Inhibitor 1] | 206 nM | 0.77 nM | 4300 nM | 2.4 nM | – | – | – | – | –
N=C(N)c1ccc(CNC(=O)[C@@H]2Cc3cn(nn3)Cc3cccc(n3)Cn3cc(nn3)C[C@@H](NS(=O)(=O)Cc3ccccc3)C(=O)N2)cc1 [Inhibitor 2] | 1860 nM | 2.2 nM | 4560 nM | 10.1 nM | – | – | – | – | –
N=C(N)c1ccc(CNC(=O)[C@@H]2Cc3ccc(cc3)CNC(=O)Cc3cccc(c3)CC(=O)NCc3ccc(cc3)C[C@@H](NS(=O)(=O)Cc3ccccc3)C(=O)N2)cc1 [Inhibitor 3] | 5700 nM | – | 3000 nM | 550 nM | – | – | – | – | –
N=C(N)c1ccc(CNC(=O)[C@@H]2Cc3ccc(cc3)CNC(=O)Cc3ccc(cc3)CC(=O)NCc3ccc(cc3)C[C@@H](NS(=O)(=O)Cc3ccccc3)C(=O)N2)cc1 [Inhibitor 4] | 9370 nM | – | 6520 nM | 868 nM | – | – | – | – | –
N=C(N)c1ccc(CNC(=O)[C@@H]2Cc3cccc(c3)CNC(=O)Cc3cccc(c3)CC(=O)NCc3cccc(c3)C[C@@H](NS(=O)(=O)Cc3ccccc3)C(=O)N2)cc1 [Inhibitor 5] | 42.1 nM | – | 26.8 nM | 17.4 nM | – | – | – | – | –
N=C(N)c1ccc(CNC(=O)[C@@H]2Cc3cccc(c3)CNC(=O)Cc3ccc(cc3)CC(=O)NCc3cccc(c3)C[C@@H](NS(=O)(=O)Cc3ccccc3)C(=O)N2)cc1 [Inhibitor 6] | – | – | 45.4 nM | 136 nM | 152 nM | – | – | – | –
N=C(N)c1ccc(CNC(=O)[C@@H]2Cc3cccc(c3)CNC(=O)Cc3ccccc3CC(=O)NCc3cccc(c3)C[C@@H](NS(=O)(=O)Cc3ccccc3)C(=O)N2)cc1 [Inhibitor 7] | 103 nM | – | 575 nM | 8.9 nM | – | – | – | – | –
N=C(N)c1ccc(CNC(=O)[C@@H]2Cc3cccc(c3)CNC(=O)CN3CCN(CC3)CC(=O)NCc3cccc(c3)C[C@@H](NS(=O)(=O)Cc3ccccc3)C(=O)N2)cc1 [Inhibitor 8] | 26.3 nM | – | 9.1 nM | 31.6 nM | – | – | – | – | –
N=C(N)c1ccc(CNC(=O)[C@@H]2Cc3ccc(cc3)CNC(=O)CN3CCN(CC3)CC(=O)NCc3ccc(cc3)C[C@@H](NS(=O)(=O)Cc3ccccc3)C(=O)N2)cc1 [Inhibitor 9] | 3470 nM | – | 2120 nM | 493 nM | – | – | – | – | –
N=C(N)c1ccc(CNC(=O)[C@@H]2Cc3ccc(cc3)OCCCCOc3ccc(cc3)C[C@@H](NS(=O)(=O)Cc3ccccc3)C(=O)N2)cc1 [Inhibitor 11] | 2010 nM | 1.9 nM | 510 nM | 34.2 nM | – | – | – | – | –
N=C(N)c1ccc(CNC(=O)[C@@H]2CCCCNC(=O)c3cccc(c3)C(=O)NCCCC[C@@H](NS(=O)(=O)Cc3ccccc3)C(=O)N2)cc1 [Inhibitor 12] | 376 nM | 38 nM | 187 nM | 18 nM | – | – | – | – | –
N=C(N)c1ccc(CNC(=O)[C@@H]2CCC(=O)NCc3cccc(c3)CNC(=O)CC[C@@H](NS(=O)(=O)Cc3ccccc3)C(=O)N2)cc1 [Inhibitor 13] | 3430 nM | – | 2020 nM | 25 nM | – | – | – | – | –
N=C(N)c1ccc(CNC(=O)[C@@H]2Cc3cn(nn3)Cc3ccc(cc3)Cn3cc(nn3)C[C@@H](NS(=O)(=O)Cc3ccccc3)C(=O)N2)cc1 [Inhibitor 14] | 600 nM | 5.4 nM | 219 nM | 12 nM | – | – | – | – | –
N=C(N)c1ccc(CNC(=O)[C@@H]2Cc3ccc(cc3)NC(=O)CN3CCN(CC3)CC(=O)Nc3ccc(cc3)C[C@@H](NS(=O)(=O)Cc3ccccc3)C(=O)N2)cc1 [Inhibitor 15] | > 10000 nM | 0.68 nM | 8400 nM | 320 nM | – | – | – | – | –
N=C(N)c1ccc(CNC(=O)[C@@H]2CCN2C(=O)[C@H](NCC(=O)O)C2CCCCC2)cc1 [melagatran] | – | – | – | – | – | 700 nM | – | – | –
aprotinin | – | – | – | – | – | – | < 0.1% | 4-5% | 0.1 nM

Source: patent US8921319B2, “Serine protease inhibitors” (The Medicines Company (Leipzig) GmbH, priority 2010, dated 2014)
